Laboratory results published in PubChem BioAssay AID1963978 (Molecular Pharmacology Branch, DTP, NCI, 2024).

Tested on: 616215-338-R-J1-PDC spheroids with HUVEC/MSC, viability
Assay: Anticancer human tumor 616215-338-R-J1-PDC patient-derived colon adenocarcinoma cell line growth inhibition [PI3K]
Settings: for IC50: curve of first compound; for viability, T/C: stronger effect = lower value
Outline: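 Multi-cell spheroids combine tumor cells with HUVEC and human MSCs, treated with targeted agents alone or with inavolisib, alpelisib, duvelisib or copanlisib. Concentrations fall in half-log steps from at or near clinical Cmax, or from 10 microM where Cmax is unknown; viability read-out.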

[1] = second compound 0.0316 µM, first compound 0.0316 µM
[2] = second compound 0.0316 µM, first compound 0.1 µM
[3] = second compound 0.0316 µM, first compound 0.316 µM
[4] = second compound 0.0316 µM, first compound 1 µM
[5] = second compound 0.0316 µM, first compound 3.16 µM
[6] = second compound 0.0316 µM, first compound 10 µM
[7] = second compound 0.1 µM, first compound 0.0316 µM
[8] = second compound 0.1 µM, first compound 0.1 µM
[9] = second compound 0.1 µM, first compound 0.316 µM
[10] = second compound 0.1 µM, first compound 1 µM
[11] = second compound 0.1 µM, first compound 3.16 µM
[12] = second compound 0.1 µM, first compound 10 µM
[13] = second compound 0.316 µM, first compound 0.0316 µM
[14] = second compound 0.316 µM, first compound 0.1 µM
[15] = second compound 0.316 µM, first compound 0.316 µM
[16] = second compound 0.316 µM, first compound 1 µM
[17] = second compound 0.316 µM, first compound 3.16 µM
[18] = second compound 0.316 µM, first compound 10 µM
[19] = second compound 1 µM, first compound 0.0316 µM
[20] = second compound 1 µM, first compound 0.1 µM
[21] = second compound 1 µM, first compound 0.316 µM
[22] = second compound 1 µM, first compound 1 µM
[23] = second compound 1 µM, first compound 3.16 µM
[24] = second compound 1 µM, first compound 10 µM
[25] = second compound 3.16 µM, first compound 0.0316 µM
[26] = second compound 3.16 µM, first compound 0.1 µM
[27] = second compound 3.16 µM, first compound 0.316 µM
[28] = second compound 3.16 µM, first compound 1 µM
[29] = second compound 3.16 µM, first compound 3.16 µM
[30] = second compound 3.16 µM, first compound 10 µM
[31] = second compound 10 µM, first compound 0.0316 µM
[32] = second compound 10 µM, first compound 0.1 µM
[33] = second compound 10 µM, first compound 0.316 µM
[34] = second compound 10 µM, first compound 1 µM
[35] = second compound 10 µM, first compound 3.16 µM
[36] = second compound 10 µM, first compound 10 µM
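Further: spheroids exposed to agents for seven days before the viability read.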

For CC1(C)CCC(CN2CCN(c3ccc(C(=O)NS(=O)(=O)c4ccc(NCC5CCOCC5)c([N+](=O)[O-])c4)c(Oc4cnc5[nH]ccc5c4)c3)CC2)=C(c2ccc(Cl)cc2)C1 + CC(Nc1ccc2c(c1)OCCn1cc(N3C(=O)OCC3C(F)F)nc1-2)C(N)=O, the IC50 (second compound 0.00316 µM) was 4.6 µM, the IC50 (second compound 0.01 µM) was 4.67 µM and the IC50 (second compound 0.0316 µM) was 5.27 µM. For the same molecule, the IC50 (second compound 0.1 µM) was 5.25 µM, the IC50 (second compound 0.316 µM) was 5.43 µM and the IC50 (second compound 1 µM) was 5.18 µM. It also gave a viability, T/C (second compound 0.00316 µM, first compound 0.0316 µM) of 88.6%, a viability, T/C (second compound 0.00316 µM, first compound 0.1 µM) of 95.9% and a viability, T/C (second compound 0.00316 µM, first compound 0.316 µM) of 104%. For the same molecule, the viability, T/C (second compound 0.00316 µM, first compound 1 µM) was 101%, the viability, T/C (second compound 0.00316 µM, first compound 3.16 µM) was 72.8% and the viability, T/C (second compound 0.00316 µM, first compound 10 µM) was 2.83%. It also gave a viability, T/C (second compound 0.01 µM, first compound 0.0316 µM) of 92.9%, a viability, T/C (second compound 0.01 µM, first compound 0.1 µM) of 101% and a viability, T/C (second compound 0.01 µM, first compound 0.316 µM) of 99.4%. It also gave a viability, T/C (second compound 0.01 µM, first compound 1 µM) of 106%, a viability, T/C (second compound 0.01 µM, first compound 3.16 µM) of 74.5% and a viability, T/C (second compound 0.01 µM, first compound 10 µM) of 2.57%. For the same molecule, the viability, T/C [1] was 90.5%, the viability, T/C [2] was 94.3% and the viability, T/C [3] was 96.6%. The viability, T/C [4] was 102%, the viability, T/C [5] was 86.9% and the viability, T/C [6] was 3.65%. It also gave a viability, T/C [7] of 105%, a viability, T/C [8] of 97.8% and a viability, T/C [9] of 102%. The viability, T/C [10] was 93.2%, the viability, T/C [11] was 87.9% and the viability, T/C [12] was 1.87%. The viability, T/C [13] was 98.5%, the viability, T/C [14] was 86.5% and the viability, T/C [15] was 93.5%. For the same molecule, the viability, T/C [16] was 102%, the viability, T/C [17] was 92.5% and the viability, T/C [18] was 2.04%. For the same molecule, the viability, T/C [19] was 107%, the viability, T/C [20] was 104% and the viability, T/C [21] was 113%. For the same molecule, the viability, T/C [22] was 103%, the viability, T/C [23] was 86.3% and the viability, T/C [24] was 1.64%.
With C#Cc1c(F)ccc2cc(O)cc(-c3ncc4c(N5CC6CCC(C5)N6)nc(OCC56CCCN5CC(F)C6)nc4c3F)c12 (stereo not drawn) + Cc1nc(NC(=O)N2CCCC2C(N)=O)sc1-c1ccnc(C(C)(C)C(F)(F)F)c1 the IC50 (second compound 0.0316 µM) was > 10 µM, the IC50 (second compound 0.1 µM) was > 10 µM and the IC50 (second compound 0.316 µM) was > 10 µM. For the same molecule, the IC50 (second compound 1 µM) was > 10 µM, the IC50 (second compound 3.16 µM) was > 10 µM and the IC50 (second compound 10 µM) was 9.14 µM. The viability, T/C [1] was 108%, the viability, T/C [2] was 106% and the viability, T/C [3] was 102%. The viability, T/C [4] was 93.3%, the viability, T/C [5] was 82% and the viability, T/C [6] was 67.6%. The viability, T/C [7] was 97.2%, the viability, T/C [8] was 104% and the viability, T/C [9] was 100%. It also gave a viability, T/C [10] of 104%, a viability, T/C [11] of 96.1% and a viability, T/C [12] of 54.5%. The viability, T/C [13] was 95.3%, the viability, T/C [14] was 99.2% and the viability, T/C [15] was 96.4%. It also gave a viability, T/C [16] of 84.8%, a viability, T/C [17] of 86.3% and a viability, T/C [18] of 54.9%. It also gave a viability, T/C [19] of 110%, a viability, T/C [20] of 101% and a viability, T/C [21] of 91.2%. The viability, T/C [22] was 89.9%, the viability, T/C [23] was 74.6% and the viability, T/C [24] was 63.6%. For the same molecule, the viability, T/C [25] was 112%, the viability, T/C [26] was 104% and the viability, T/C [27] was 93.8%. It also gave a viability, T/C [28] of 85.1%, a viability, T/C [29] of 78.1% and a viability, T/C [30] of 53%. It also gave a viability, T/C [31] of 88.3%, a viability, T/C [32] of 93.2% and a viability, T/C [33] of 93.5%. The viability, T/C [34] was 88.9%, the viability, T/C [35] was 82.5% and the viability, T/C [36] was 47.1%.
For CC(Cn1ccc(-c2ccc(C#N)c(Cl)c2)n1)NC(=O)c1cc(C(C)O)[nH]n1 (stereo not drawn) + Cc1nc(NC(=O)N2CCCC2C(N)=O)sc1-c1ccnc(C(C)(C)C(F)(F)F)c1, the IC50 (second compound 0.0316 µM) was > 10 µM, the IC50 (second compound 0.1 µM) was > 10 µM and the IC50 (second compound 0.316 µM) was > 10 µM. For the same molecule, the IC50 (second compound 1 µM) was > 10 µM, the IC50 (second compound 3.16 µM) was > 10 µM and the IC50 (second compound 10 µM) was > 10 µM. The viability, T/C [1] was 105%, the viability, T/C [2] was 101% and the viability, T/C [3] was 114%. The viability, T/C [4] was 97.5%, the viability, T/C [5] was 102% and the viability, T/C [6] was 103%. It also gave a viability, T/C [7] of 94.3%, a viability, T/C [8] of 89.8% and a viability, T/C [9] of 98.1%. The viability, T/C [10] was 95.7%, the viability, T/C [11] was 101% and the viability, T/C [12] was 97.4%. The viability, T/C [13] was 98.6%, the viability, T/C [14] was 104% and the viability, T/C [15] was 104%. The viability, T/C [16] was 99.7%, the viability, T/C [17] was 108% and the viability, T/C [18] was 95.5%. For the same molecule, the viability, T/C [19] was 111%, the viability, T/C [20] was 102% and the viability, T/C [21] was 95.4%. For the same molecule, the viability, T/C [22] was 102%, the viability, T/C [23] was 100% and the viability, T/C [24] was 98.5%. The viability, T/C [25] was 101%, the viability, T/C [26] was 99.5% and the viability, T/C [27] was 96.7%. It also gave a viability, T/C [28] of 103%, a viability, T/C [29] of 96.1% and a viability, T/C [30] of 108%. The viability, T/C [31] was 105%, the viability, T/C [32] was 100% and the viability, T/C [33] was 90.8%. It also gave a viability, T/C [34] of 99.3%, a viability, T/C [35] of 95.9% and a viability, T/C [36] of 84.1%.
In the case of Cn1ncnc1[C@H]1c2n[nH]c(=O)c3cc(F)cc(c23)N[C@@H]1c1ccc(F)cc1 + Cc1nc(NC(=O)N2CCCC2C(N)=O)sc1-c1ccnc(C(C)(C)C(F)(F)F)c1, the IC50 (second compound 0.0316 µM) is reported as > 0.1 µM, the IC50 (second compound 0.1 µM) is reported as > 0.1 µM and the IC50 (second compound 0.316 µM) is reported as > 0.1 µM. For the same molecule, the IC50 (second compound 1 µM) was > 0.1 µM, the IC50 (second compound 3.16 µM) was > 0.1 µM and the IC50 (second compound 10 µM) was > 0.1 µM. For the same molecule, the viability, T/C (second compound 0.0316 µM, first compound 0.000316 µM) was 95.2%, the viability, T/C (second compound 0.0316 µM, first compound 0.001 µM) was 88.9% and the viability, T/C (second compound 0.0316 µM, first compound 0.00316 µM) was 112%. It also gave a viability, T/C (second compound 0.0316 µM, first compound 0.01 µM) of 89.3%, a viability, T/C [1] of 109% and a viability, T/C [2] of 99.1%. For the same molecule, the viability, T/C (second compound 0.1 µM, first compound 0.000316 µM) was 101%, the viability, T/C (second compound 0.1 µM, first compound 0.001 µM) was 98.7% and the viability, T/C (second compound 0.1 µM, first compound 0.00316 µM) was 97.8%. For the same molecule, the viability, T/C (second compound 0.1 µM, first compound 0.01 µM) was 97.2%, the viability, T/C [7] was 104% and the viability, T/C [8] was 109%. For the same molecule, the viability, T/C (second compound 0.316 µM, first compound 0.000316 µM) was 92%, the viability, T/C (second compound 0.316 µM, first compound 0.001 µM) was 103% and the viability, T/C (second compound 0.316 µM, first compound 0.00316 µM) was 89.6%. For the same molecule, the viability, T/C (second compound 0.316 µM, first compound 0.01 µM) was 104%, the viability, T/C [13] was 99.9% and the viability, T/C [14] was 90%. The viability, T/C (second compound 1 µM, first compound 0.000316 µM) was 107%, the viability, T/C (second compound 1 µM, first compound 0.001 µM) was 103% and the viability, T/C (second compound 1 µM, first compound 0.00316 µM) was 94.5%. For the same molecule, the viability, T/C (second compound 1 µM, first compound 0.01 µM) was 93.4%, the viability, T/C [19] was 90.2% and the viability, T/C [20] was 93.5%. It also gave a viability, T/C (second compound 3.16 µM, first compound 0.000316 µM) of 103%, a viability, T/C (second compound 3.16 µM, first compound 0.001 µM) of 94.6% and a viability, T/C (second compound 3.16 µM, first compound 0.00316 µM) of 98.5%. It also gave a viability, T/C (second compound 3.16 µM, first compound 0.01 µM) of 93%, a viability, T/C [25] of 92.5% and a viability, T/C [26] of 87.7%. The viability, T/C (second compound 10 µM, first compound 0.000316 µM) was 107%, the viability, T/C (second compound 10 µM, first compound 0.001 µM) was 91.3% and the viability, T/C (second compound 10 µM, first compound 0.00316 µM) was 85.7%. The viability, T/C (second compound 10 µM, first compound 0.01 µM) was 81.3%, the viability, T/C [31] was 81.4% and the viability, T/C [32] was 80.4%.
